Values quoted from earlier work as cited in patent publication US6884429B2, “Medical devices incorporating deuterated rapamycin for controlled delivery thereof” (Isotechnika International Inc., priority 1997, dated 2005).

Conditions: plasma and low-, and neuteral -pH buffers at 37° C.

half-life of degradation in solution: < 10 h
SMILES: CO[C@H]1C[C@@H]2CC[C@@H](C)[C@@](O)(O2)C(=O)C(=O)N2CCCC[C@H]2C(=O)O[C@H]([C@H](C)C[C@@H]2CC[C@@H](O)[C@H](OC)C2)CC(=O)[C@H](C)/C=C(\C)[C@@H](O)[C@@H](OC)C(=O)[C@H](C)C[C@H](C)/C=C/C=C/C=C/1C [Rapamycin]
